Data taken from the supplement of paper PMC8671470.

Columns and labels:
Details in all cases: 72 h
[1] = system: HL-60; assay: area under dose-response curve (viability, 1 nM-10 uM) (fraction (0-1)); higher = more sensitive
In short: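 Area under the curve, where listed, was derived from four-parameter log-logistic fits with drc and PharmacoGx. These fits used CellTiter-Glo viability from HL-60 cells in RPMI 1640 with 10% FBS, normalised to DMSO wells and wells holding 10 μM proteasome inhibitor. The full library was rescreened on 384-well plates in duplicate at five tenfold concentrations, 1–10,000 nM, with DMSO or 100 nM of one of three metabolic inhibitors, for 72 h at 37 °C, 5% CO2.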

[2] = system: HEL; assay: cell viability (% survival relative to DMSO control, bortezomib = 0%); higher = less cytotoxic
In short: (§1)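 Fifteen myeloid leukaemia cell lines (10 AML, 5 CML) were seeded at a density titrated to the linear growth range. They went into 384-well plates with compounds pre-printed at 1, 10, 100, 1000 or 10000 nM in duplicate. After 72 h at 37 °C with 5% CO2, viability was read by CellTiter-Glo luminescence. Values are percent survival, with vehicle set to 100% and a 10 µM positive control to 0%, averaged over the duplicates.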

[3] = system: KCL-22; assay: as above
In short: as §1

[4] = co-treatment: GSK2194069 100 nM
[5] = co-treatment: pictilisib 100 nM

SMILES	area under dose-response curve ([1]; co-treatment: AZD3965 100 nM)	area under dose-response curve ([1]; co-treatment: DMSO vehicle)	area under dose-response curve [1, 4]	area under dose-response curve [1, 5]	cell viability ([2]; 1 nM) [%]	cell viability ([2]; 10 nM) [%]	cell viability ([2]; 100 nM) [%]	cell viability ([2]; 1000 nM) [%]	cell viability ([2]; 10000 nM) [%]	cell viability ([3]; 1 nM) [%]	cell viability ([3]; 10 nM) [%]	cell viability ([3]; 100 nM) [%]	cell viability ([3]; 1000 nM) [%]	cell viability ([3]; 10000 nM) [%]
Cc1ccc(S(=O)(=O)NC2c3ccccc3Oc3ccccc32)cc1 [AH-7614]	< 0.0301	< 0.0301	< 0.0301	< 0.0301	107	96.9	103	107	98.9	75.6	84	128	101	80.8
C[C@]12CC[C@H](O)CC1=CC[C@@H]1[C@@H]2CC[C@]2(C)C(c3cccnc3)=CC[C@@H]12 [Abiraterone]	< 0.0301	< 0.0301	< 0.0301	< 0.0301	113	109	110	112	111	99.6	92	111	112	87.2
O=C(COc1ccc(C(=O)c2ccccc2)cc1)NC1CCN(Cc2ccccc2)CC1 [AdipoRon]	< 0.0301	< 0.0301	< 0.0301	< 0.0301	94.5	96.6	96.6	97.5	85.4	102	110	102	108	76.3
CCOC(=O)[C@H]1O[C@@H]1C(=O)N[C@@H](CC(C)C)C(=O)NCCC(C)C [Aloxistatin]	< 0.0301	< 0.0301	< 0.0301	< 0.0301	111	102	106	96.2	88.2	98.4	89.2	102	99.5	87.3
N[C@](CCCCB(O)O)(CCN1CCCCC1)C(=O)O [Arginase inhibitor 1]	0.0306	0.0367	0.0592	–	109	96.7	101	90.4	95.4	97	84.6	104	102	90.9
CCOc1ccc(Cc2cc([C@@H]3O[C@H](CO)[C@@H](O)[C@H](O)[C@H]3O)ccc2Cl)cc1 [Dapagliflozin]	< 0.0301	< 0.0301	< 0.0301	< 0.0301	99.9	102	75.6	97.7	122	116	109	54.2	96.7	107
O=C(O)C(Cl)Cl [Dichloroacetate]	< 0.0301	< 0.0301	< 0.0301	< 0.0301	102	102	101	97	103	101	97.7	93.4	92.1	102
O=C1Oc2ccccc2C(=O)C1CC1C(=O)Oc2ccccc2C1=O (stereo unspecified) [Dicumarol]	< 0.0301	< 0.0301	< 0.0301	< 0.0301	109	102	92	101	107	96.6	97.3	107	107	102
